From paper PMC12744750 (Plant Communications, 2025)
Ends that are not written are not given here.

What was measured:
ETR1:HA = assay: Co-immunoprecipitation of PLS:GFP and ETR1:HA in N. benthamiana leaves; assay type: binding, Arabidopsis; conditions: Co-IP, western blotting, 3 days after infiltration
Description: To investigate the interaction between the PLS peptide and the ethylene receptor ETR1, two DNA constructs were created by Gateway cloning. The […] PLS gene (without the stop codon) was inserted into the pEarlyGate103 (pEG103) destination vector, which contained the pro35S promoter and a C-terminal GFP tag, to produce a vector containing pro35S::PLS:GFP DNA. The ETR1 cDNA was inserted into the pEarlyGate301 (pEG301) vector to create a pro35S::ETR1:HA construct to express an ETR1 protein with a C-terminal HA tag. pro35S::GFP was used as a control. The primers used to clone ETR1 and PLS are found in supplemental Table 9.
Constructs were transiently expressed in N. benthamiana (tobacco) leaves as described previously ([Voinnet et al., 2003]). Experiments were replicated up to five times. Competent Agrobacterium tumefaciens GV3101 cells were transformed with the desired plasmid containing the gene of interest and injected with a syringe. The plants were approximately 7–10 weeks old; the chosen leaves were healthy and 3–6 cm in length, and 3 to 4 leaves were infiltrated with each construct. […]
SDS–PAGE was used to separate protein fragments. The complexed proteins from the pulldown assay were analyzed on 10%–12% acrylamide gels. […] The horseradish peroxidase conjugated to the secondary antibody was detected using X-ray film. […]

pls mutant = assay: Complementation of pls mutant by proPLS::PLS:GFP transgene; assay type: in vivo, Arabidopsis thaliana; conditions: single-copy proPLS::PLS:GFP in pls background
Description: proPLS::PLS:GFP comprises a 1.5-kb PLS promoter sequence ([Casson et al., 2002]) fused to the PLS open reading frame in pMDC107 (obtained from Prof. P.J. Hussey, Durham University) as a C-terminal GFP translational fusion. The PLS ORF with its 1.5-kb promoter was amplified from the TOPO 2.1 vector, which contained the PLS gene sequence with promoter ([Casson et al., 2002]); the primers used for cloning are listed in supplemental Table 9. pls mutant plants were transformed using the method of [Clough and Bent (1998)]. proPLS::GFP plants were generated using the 1.5-kb PLS promoter ([Casson et al., 2002]) fused to GFP in a wild-type background. p35S::GFP seedlings were obtained from Dr. Piers Hemsley, Durham University. Seedlings of Arabidopsis thaliana ecotype C24 or Col-0, pls mutants, and transgenic PLS overexpressers, all from lab stocks, were grown on solid sterile half-strength (2.2 g/l) Murashige and Skoog medium (Sigma-Aldrich) containing 10 g/l sucrose (half-strength [½] MS10 medium) solidified with 2.5 g/l Phytagel (Sigma-Aldrich) in 90-mm Petri dishes (Sarstedt, Leicester, UK) at 21°C under a 16-h photoperiod as described previously ([Casson et al., 2002]; [Chilley et al., 2006]). […] Seedlings were scanned to create a digital image, and root lengths of the seedlings were measured using ImageJ. […]

[1] = tested on: root epidermal cells, endomembrane markers; assay: Subcellular localization by confocal microscopy; assay type: cell-based, Arabidopsis
Description: (§1) proPLS::PLS:GFP comprises a 1.5-kb PLS promoter sequence ([Casson et al., 2002]) fused to the PLS open reading frame in pMDC107 (obtained from Prof. P.J. Hussey, Durham University) as a C-terminal GFP translational fusion. The PLS ORF with its 1.5-kb promoter was amplified from the TOPO 2.1 vector, which contained the PLS gene sequence with promoter ([Casson et al., 2002]); the primers used for cloning are listed in supplemental Table 9. pls mutant plants were transformed using the method of [Clough and Bent (1998)]. proPLS::GFP plants were generated using the 1.5-kb PLS promoter ([Casson et al., 2002]) fused to GFP in a wild-type background. p35S::GFP seedlings were obtained from Dr. Piers Hemsley, Durham University. […] Seedlings were scanned to create a digital image, and root lengths of the seedlings were measured using ImageJ. […]
CSLM images for propidium iodide and GFP were obtained using a Leica SP5 TCS confocal microscope as described previously ([Rowe et al., 2016]). proPLS::PLS:GFP, proPLS::GFP, and pro35S::GFP seedlings were grown for 7 days on Phytagel ½ MS10 medium before ∼25 mm of the root tip was removed and mounted in dH2O prior to imaging. […] For standard photomultiplier tubes, a laser power of 21% and a smart gain of 800–1000 mV were used, depending on the intensity of the fluorescence. […]

pls mutant primary root = assay: Root length of pls mutant under exogenous copper; assay type: in vivo, Arabidopsis thaliana; conditions: 0-50 μM CuSO4, 12 days, n = 18
Description: as §1
Root length (n = 18 from samples grown on 3 independent plates) was measured after 12 days using ImageJ. […]

Row | Substance | binding of ETR1:HA (ETR1:HA) | transformants fully complementing pls mutant (pls mutant) | co-localization with RFP:HDEL (ER lumen) ([1]; proPLS::PLS:GFP plants) | co-localization with ER Tracker Red ([1]; proPLS::PLS:GFP stably transformed Arabidopsis) | copper hypersensitivity of pls mutant (pls mutant primary root)
1 | PLS:GFP: fusion protein of PLS with C-terminal GFP (MKPRLCFNFRRRSISPCYISISYLLVAKLFKLFKIH-{GFP}; cysteine pairing not given here) | ETR1:HA bound to PLS:GFP | four | co-localized with the ER lumen–targeted red fluorescent protein RFP:HDEL | co-localized with the ER marker dye ER-Tracker Red | 
2 | copper |  |  |  |  | not copper hypersensitive
